Source: US6506797B1, “Substituted phenylpropionic acid derivatives as agonists to human peroxisome proliferator-activated receptor (PPAR) α” (Kyorin Pharmaceutical Co., Ltd., priority 1999, dated 2003)
pEC50: −log10 of the molar value.

Assays:
[1] = target: T1, human peroxisome proliferator-activated receptor (PPAR)α (Homo sapiens, UniProt Q07869); assay: Binding assay to human PPARα (His-hPPARα-LBD, [3H] ligand); parameters: expressed in transfected cells
T1 sequence (Q07869 239-466 limits assumed): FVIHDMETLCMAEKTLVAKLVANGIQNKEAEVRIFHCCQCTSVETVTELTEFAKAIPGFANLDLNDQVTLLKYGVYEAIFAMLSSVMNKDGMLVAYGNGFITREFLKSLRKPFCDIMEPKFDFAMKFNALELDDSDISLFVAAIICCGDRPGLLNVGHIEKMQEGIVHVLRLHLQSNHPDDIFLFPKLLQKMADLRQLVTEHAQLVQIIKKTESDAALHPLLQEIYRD
Protocol: Binding assay to human peroxisome proliferator-activated receptor (PPAR)α
A plasmid that eXpresses protein of human PPARα-ligand binding domain attached with histidine tag (His-hPPARα-LBD) was cultured by infecting to Escherichia coli (JM-109) and aimed protein was recovered and purified. [^3H]-5-[(2,4-dioxothiazolidine-5-yl)methyl]-2-methoxy-N-[[4-(trifluoromethyl)phenyl]methyl]benzamide (Amasham), testing compound and (8S)-HETE being control compound were incubated for 45 minutes at room temperature at various concentrations together with His-hPPARα-LBD protein in 10 mmol/l Tris hydrochloride buffer (pH 7.4) containing 50 mmol/l potassium chloride and 10 mmol/l dithiothreitol. After the reaction, amount of [^3H]-5-[(2,4-dioxothiazolidine-5-yl)methyl]-2-methoxy-N-[[4-(trifluoromethyl)phenyl]methyl]benzamide was determined by a liquid scintillation counter.

[2] = target: T1, human peroxisome proliferator-activated receptor (PPAR)α; assay: Transactivation assay for human PPARα (CHO cells, luciferase reporter); assay type: cell-based; parameters: expressed in transfected cells; host or cells: CHO cells
From the text: Transactivation assay for human peroxisome proliferator-activated receptor (PPAR)α
To CHO cells cultured in a Dulbecco-modified Eagle's medium containing 10% delipidated fetal calf serum (FCS/DMEM), receptor plasmid that eXpresses fused protein of DNA-binding domain being transcription factor of yeast with ligand-binding domain of human type PPARα (Biochemistry, 1993, 32, 5598) its reporter plasmid (STRATAGENE Corp.), and luciferase plasmid of Renilla (Promega Corp.) as an internal standard were cotransfected with lipofectamine in the serum-free state. Thereafter, testing compound and (8S)-HETE being control compound were added to 10% FCS/DMEM and both luciferase activities were measured after 24 hours, which were corrected with internal standard.
Test of transcription activation on human peroxisome proliferator-activated receptor (PPAR)α
The test of transcription activation on human peroxisome proliferator-activated receptor (PPAR)α shown in Test example 1 was performed to obtain results shown in Table 19.

SD strain male rats = assay: Test on lipid-lowering action in fructose-loaded-diet rats; assay type: in vivo; details: versus vehicle control
Protocol: Test on Lipid-lowering Action
After SD strain male rats (Nippon Charles Liver) were bred from 8-(weeks old) with feed (Nippon Clear), test was started from 11-(weeks old). After (fasting) for 2 days, testing compound and Bezafibrate (30 mg/kg), being control compound, suspended into 0.5% solution of arabic gum were administered orally once a day for continuous 4 days. For the feed during administration period, AIN-93M modified fructose-loaded diet (Oriental Yeast) was used. After administration for 4 days, blood was collected from (trial) vein and the blood levels of triglyceride, total cholesterol, and free fatty acid were determined by enzymatic method.
The lowering rate of triglyceride in blood, overall cholesterol and free fatty acid was calculated, respectively, by determining the proportion of a figure obtained by subtracting average level of triglyceride in blood (or, average level of (total) cholesterol or level of free fatty acid) of dosage group from average level of triglyceride in blood (or, average level of (total) cholesterol or level of free fatty acid) of vehicle control group to average level of triglyceride in blood (or, average level of overall cholesterol or level of free fatty acid) of vehicle control group.

[3] = 30 mg/kg orally once a day for 4 days
[4] = 10 mg/kg orally once a day for 4 days
[5] = Table 19 (Test example 4), method of Test example 1, read-out: Transcriptional activity EC50

Row | melting point [°C] | pEC50 [1] | pEC50 [2] | Compound | other results
1 | 144.5 to 146.5 | 6.72 | 7.94 | CCC(Cc1ccc(OC)c(C(=O)NCc2ccc(C(F)(F)F)cc2)c1)C(=O)O (stereo not drawn) [Example 20, 2-Ethyl-3-[4-methoxy-3-[N-[[4-(trifluoromethyl)phenyl]-methyl]carbamoyl]phenyl]propanoic acid] | Lowering rate (%) Free fatty acid (SD strain male rats; [4]): 77%; Lowering rate (%) Total cholesterol (SD strain male rats; [4]): 25%; Lowering rate (%) Triglyceride in blood (SD strain male rats; [4]): 53%; Lowering rate (%) Free fatty acid (SD strain male rats; [3]): 53%; Lowering rate (%) Total cholesterol (SD strain male rats; [3]): 55%; Lowering rate (%) Triglyceride in blood (SD strain male rats; [3]): 56%
2 | 158.5 to 159.5 | 6.37 | 6.96 | CCC(Cc1ccc(OC)c(C(=O)NCc2ccc(-c3ccccc3)cc2)c1)C(=O)O (stereo not drawn) [Example 22] | 
3 |  | 6.13 | 7.62 | CCC(Cc1ccc(OC)c(C(=O)NCc2ccc(Oc3ccccc3)cc2)c1)C(=O)O (stereo not drawn) [Example 23] | 
4 | 161 to 163 | 6.25 | 6.74 | COc1ccc(CC(OC)C(=O)O)cc1C(=O)NCc1ccc(C(F)(F)F)cc1 (stereo not drawn) [Example 24] | 
5 | 155 to 156 | 6.08 | 6.70 | COc1ccc(CC(C)C(=O)O)cc1C(=O)NCc1ccc(C(F)(F)F)cc1 (stereo not drawn) [Example 30] | 
6 | 85 to 86 |  |  | CCC[C@@H](Cc1ccc(OC)c(C(=O)NCc2ccc(Oc3ccccc3)cc2)c1)C(=O)O [Example 178] | pEC50 [2, 5]: 7.03
7 | 126 to 127 |  |  | CCC[C@@H](Cc1ccc(OC)c(C(=O)NCc2ccc(Oc3ccc(F)cc3)cc2)c1)C(=O)O [Example 179] | pEC50 [2, 5]: 8.04

Continued, molecule first:

Row | Compound | melting point [°C] | pEC50 [1] | pEC50 [2] | other results
8 | CC[C@@H](Cc1ccc(OC)c(C(=O)NCc2ccc(C(F)(F)F)cc2)c1)C(=O)O | 128 to 130 |  |  | 
9 | COc1ccc(CC(C)(C)C(=O)O)cc1C(=O)NCc1ccc(C(F)(F)F)cc1 | 151 to 152 |  |  | 
10 | CCC(Cc1ccc(OC)c(C(=O)NCc2ccc(C(F)(F)F)cc2)c1)C(=O)O (stereo not drawn) [46] | 128 to 130 |  |  | 
11 | CCCCC/C=C\C/C=C\C=C\[C@@H](O)C/C=C\CCCC(=O)O [(8S) HETE, (8S)-HETE, reference compound] |  |  |  | pEC50 ([1]; His-hPPARα-LBD, 45 minutes at room temperature, pH 7.4, read-out: Binding activity EC50): 6.77; pEC50 ([2]; Table 17, CHO cells, human PPARα LBD fusion, luciferase after 24 hours, read-out: Transcriptional activity EC50): 5.89
12 | CC(C)(Oc1ccc(CCNC(=O)c2ccc(Cl)cc2)cc1)C(=O)O [Bezafibrate, reference compound] |  |  |  | Lowering rate (%) Free fatty acid (SD strain male rats; [3]): 37%; Lowering rate (%) Total cholesterol (SD strain male rats; [3]): 49%; Lowering rate (%) Triglyceride in blood (SD strain male rats; [3]): 64%
13 | CC[C@@H](Cc1ccc(OC)c(C(=O)NCc2ccc(Oc3ccc(F)cc3)cc2)c1)C(=O)O [Example 174, (S)-(+)-2-ethyl-3-[4-methoxy-3-[N-[(4-fluorophenoxyphenyl)methyl]carbamoyl]phenyl]propanoic acid] |  |  |  | pEC50 [2, 5]: 7.62
